From patent US4879220A (priority 1986, dated 1989)

Legend:
glucose transporter = molecular target: T1, glucose transporter (Homo sapiens, UniProt P11166); details: glucose-glucose transporter complex; Sogin and Hinkle; read-out: dissociation constant; cited from earlier work
T1 construct: intact human erythrocytes labeled with the glucose transporter-specific probe (glucose-GAP); endogenous in cells; host or cells: human erythrocytes
T1 sequence (P11166 1-492): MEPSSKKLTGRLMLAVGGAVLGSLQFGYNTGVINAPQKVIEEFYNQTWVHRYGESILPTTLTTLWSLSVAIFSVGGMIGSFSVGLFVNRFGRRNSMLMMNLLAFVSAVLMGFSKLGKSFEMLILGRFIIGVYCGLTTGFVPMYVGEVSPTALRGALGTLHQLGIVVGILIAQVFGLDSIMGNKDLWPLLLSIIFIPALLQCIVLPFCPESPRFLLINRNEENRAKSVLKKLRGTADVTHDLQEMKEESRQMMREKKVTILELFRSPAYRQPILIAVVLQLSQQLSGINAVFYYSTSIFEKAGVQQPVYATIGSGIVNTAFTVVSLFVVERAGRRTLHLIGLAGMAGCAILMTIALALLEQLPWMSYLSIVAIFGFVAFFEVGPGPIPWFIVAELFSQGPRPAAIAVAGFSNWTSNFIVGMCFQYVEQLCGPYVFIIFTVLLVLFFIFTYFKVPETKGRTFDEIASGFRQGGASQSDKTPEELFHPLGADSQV

ATPase = details: ouabain-ATPase complex; Erdmann and Hasse; read-out: dissociation constant; cited from earlier work
[1] = system: human foreskin fibroblasts; test: Morphology and attachment of cultured fibroblasts on exposure to probe or ligand; assay type: cell-based
Protocol: Human foreskin fibroblasts were cultured to subconfluency on glass discs placed in culture dishes using Dulbecco's modified Eagle's medium (Gibco Laboratories, Grand Island, NY, U.S.A.). For labeling with glucose-GAP, glass discs with attached fibroblasts were removed from the culture dishes and washed twice with HBS. The cells were then exposed to fresh HBS (experimental) or HBS containing 400 mM glucose or 0.4 uM cytochalasin B (controls) for 5 min at room temperature. […] Cytochem. […] The discs were then placed in a drop of HBS and irradiated on ice as described above for erythrocytes. For labeling with ouabain-GAP cells grown in culture dishes were washed twice with HBS and exposed to HBS containing 400 mM glucose (experimental) or HBS containing 400 mM glucose plus 2 mM ouabain (control) for 15 min at 37° C. An equal volume of ouabain-GAP was then added followed by incubation for 30 min in the dark at room temperature. At this point, the presence of ouabain or ouabain-GAP caused the cells to detach from the substrate. The cells were recovered and unbound probe was removed by centrifugation in HBS. Cells were resuspended in fresh HBS and irradiated for 15 min in a water-jacketed cell at 4° C. using the light source described above.

SMILES | Kd (glucose transporter) | Kd (ATPase) | morphological response of fibroblasts [1]
OC[C@H]1OC(O)[C@H](O)[C@@H](O)[C@@H]1O (stereo partly drawn) [glucose] | 50 mM | – | –
C[C@@H]1O[C@@H](O[C@H]2C[C@@H](O)[C@]3(CO)[C@H]4[C@H](O)C[C@]5(C)[C@@H](C6=CC(=O)OC6)CC[C@]5(O)[C@@H]4CC[C@]3(O)C2)[C@H](O)[C@H](O)[C@H]1O [ouabain] | – | 2.8 nM | caused the cells to lift from the substrate and take on a rounded morphology
